According to patent US10280209B2 (YISSUM RESEARCH DEVELOPMENT COMPANY OF THE HEBREW …, priority 2013, dated 2019):
Values joined by “and” are separate entries in the source; they are usually repeats but may differ in a detail not shown here. Identical values can stand only once. Square brackets hold non-standard residues; d marks the D form. Ends that are not written are not given here.

Experiments:
[1] = test system: experimental autoimmune encephalitis; assay: Experimental autoimmune encephalitis (EAE) model; assay type: in vivo, mouse
[2] = target: T1, staphylococcal enterotoxin B (SEB) (Staphylococcus aureus, UniProt P01552); conditions: previously shown (3); cited from earlier work
[3] = target: T1, staphylococcal enterotoxin B (SEB); conditions: previously shown (3); cited from earlier work; remark: listed apart in the source
CD28 = target: T2, CD28 (Homo sapiens, UniProt P10747); assay: αCD3/αCD28-induced cytokine expression in human PBMC (ELISA); assay type: cell-based; conditions: αCD3/αCD28, 10 μg/ml peptide
T2 construct: endogenous in cells; host or cells: human PBMC
Protocol: (§1) Peripheral blood mononuclear cells (PBMC) from healthy human donors were separated on Ficoll Paque (Amersham), washed twice with 50 ml of RPMI 1640 medium, re-suspended at a density of 4×10^6 cells/ml and cultured in this medium supplemented with 2% fetal calf serum, 2 mM glutamine, 10 mM Minimum Essential Medium (MEM) nonspecific amino acids, […], 10 mM Hepes pH 7.2, 5×10^−5 M 2-mercaptoethanol, 100 u/ml penicillin, 100 μg/ml streptomycin and 5 μg/ml nystatin. Mouse anti-human monoclonal antibodies αCD3 (clone UCHT1; 100 ng/ml) and αCD28 (clone 37407; 2.5 μg/ml) (both from R&D Systems) were used as inducers. Cytokines in culture medium were determined with Quantikine ELISA kits (R&D Systems) according to the manufacturer's instructions.

signaling through CD3 = assay: αCD3-induced cytokine expression in human PBMC (ELISA); assay type: cell-based; conditions: αCD3 alone, 10 μg/ml peptide
Protocol: as §1

human IgG = assay: Surface plasmon resonance, human IgG control on immobilized peptide; assay type: binding; conditions: SPR, studied in parallel
Protocol: Peptides were diluted to 10-200 μg/ml in 10 mM Sodium (Na) acetate pH 4.0 and immobilized on a CM5 sensor chip (BIAcore) using an amine-thiol coupling kit (BIAcore), respectively; the immobilized amounts were 500-1,000 resonance units. Analytes were injected at 20 μl/min in 25 mM HEPES pH 7.4, 150 mM NaCl, 3.4 mM EDTA, and 0.005% surfactant P20 under conditions showing no mass transport limitation. Regeneration was with 50 mM phosphoric acid. Kinetic analyses were performed at 25° C. in a BIAcore 3000 instrument, deducting the signal from the control flow cell from the binding signal. Analyte curves were run in duplicate; representative results are shown. Human IgG (Jackson Laboratories) served as control. Fusion of the IgG1-Fc domain to the 152-amino-acid extracellular domain of CD28 was performed as described below.

human PBMC = assay: Cytokine induction by peptides alone in human PBMC (ELISA); assay type: cell-based; conditions: 10 μg/ml peptide, no inducer
Protocol: as §1

adjuvant arthritis = assay: Adjuvant arthritis model; conditions: rat, in vivo
[4] = test system: collagen-induced arthritis; assay: Collagen-induced arthritis model; assay type: in vivo, mouse; conditions: mice
[5] = FIG. 11A, daily from day 1, solumedrol 20 mg/kg, p2TB 50 μg, pe12-pal 100 μg
[6] = independent experiment FIG. 11B-D, daily, solumedrol 20 mg/kg, p2TB 50 μg, p2TB-pal 50 μg, pe12-pal 100 μg

Row | Molecule | reduction of cumulative clinical score [1, 5] [%] | reduction of cumulative clinical score [1, 6] [%] | signaling through CD28 (IFN-γ, IL2, TNF-α secretion) (CD28) | αCD3-mediated induction of IFN-γ (signaling through CD3) | αCD3-mediated induction of IL2 (signaling through CD3) | αCD3-mediated induction of TNF-α (signaling through CD3) | affinity for IgG (human IgG) | Th1 cytokine response induced by peptide alone (human PBMC) | also measured
1 | C[C@H]1C[C@@H]2[C@H]([C@@H](O)C[C@@]3(C)[C@H]2CC[C@]3(O)C(=O)COC(=O)CCC(=O)O)[C@@]2(C)C=CC(=O)C=C12 [solumedrol, reference compound] | 50 | 50 | – | – | – | – | – | – | –
2 | (D-A)ASMDYPVL(D-A) ([dA]ASMDYPVL[dA]) | – | – | – | – | – | – | – | – | ability to protect mice from lethal SEB challenge after scrambling of p2TA sequence [2]: strongly impair; ability to bind directly to SEB after scrambling of p2TA sequence [3]: strongly impair
3 | (D-A)PAVVLASS(D-A) ([dA]PAVVLASS[dA]) [p2TB, CTLA-4 homodimer interface peptide abutted by D-Ala at both termini] | – | – | inhibit signaling through CD28 | did not inhibit | did not inhibit | did not inhibit | none of the peptides showed affinity for IgG | do not induce a significant Th1 cytokine response | –
4 | (D-A)SHFTHNRHGHST(D-A) ([dA]SHFTHNRHGHST[dA]) [pe12] | – | – | inhibit signaling through CD28 | did not inhibit | did not inhibit | did not inhibit | none of the peptides showed affinity for IgG | do not induce a significant Th1 cytokine response | disease symptoms after termination of therapy on day 15 (adjuvant arthritis): leveled off and even showed a progressive further decline; cumulative reduction of disease symptoms (adjuvant arthritis; iv): 41%; disease symptoms during treatment, up to day 15 (adjuvant arthritis; iv): did not exhibit inhibition of symptoms
5 | (palmitoyl-lysine)PAVVLASS(D-A) (PAVVLASS[dA]; not fully specified (N-terminus)) [p2TB-pal] | – | – | – | – | – | – | – | – | reduction of cumulative clinical score ([1]; mouse, in vivo): 41% and 31% and 38%; reduction of cumulative disease symptoms ([4]; 100 μg once every 3 days starting on day 25): 34%
6 | (palmitoyl-lysine)SHFTHNRHGHST(D-A) (SHFTHNRHGHST[dA]; not fully specified (N-terminus)) [pe12-pal] | 63 | 42 | – | – | – | – | – | – | reduction of cumulative clinical score ([1]; independent experiment FIG. 11B-D, once every 3 days, p2TB 100 μg, p2TB-pal 100 μg, pe12-pal 150 μg): 48%; amelioration of disease symptoms ([4]; 150 μg once every 3 days from disease onset): 31%; amelioration of disease symptoms ([4]; 200 μg once every 5 days from disease onset): 27%
